Measured values published in patent US11753407B2, “Compounds for treating spinal muscular atrophy” (PTC Therapeutics, Inc., priority 2012, dated 2023).

Tests used:
[1] = system: SMN2 minigene mRNA (SMN2-A minigene) in HEK293H cells; assay: SMN2 minigene mRNA splicing RT-qPCR assay in cultured cells; format: cell-based, human; conditions: Homo sapiens, HEK293-H; concentration increasing full length SMN2 mRNA 1.5-fold relative to vehicle-treated cells; HEK293H cells with SMN2-A minigene, 24 hours, 7-point concentration data; read-out: EC1.5x for production of full length SMN2 mRNA
In short: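 Cells are seeded, left to attach 4-6 h, then dosed with test compound across seven concentrations and incubated 24 h. Lysates undergo RT-qPCR with primers/probe specific to the exon 7-containing minigene transcript, co-amplified with GAPDH. Fold change over vehicle is calculated, and EC1.5× marks the 1.5-fold point.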

[2] = system: Smn protein in SMA patient fibroblast cells (GM03813); assay: Smn protein assay in cultured cells (SMN HTRF); format: cell-based, human; conditions: SMA patient fibroblast cells, 48 hours; for EC1.5x for Smn protein expression: 7-point concentration curve, SMN HTRF, concentration producing 1.5 times Smn protein vs DMSO vehicle control; for maximum fold (Fold) increase of Smn protein: 7-point concentration data, fold relative to vehicle control
In short: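 Patient-derived SMA fibroblasts are plated, given compound for 48 h, then lysed in RIPA buffer with protease inhibitors. Lysate Smn is detected by an anti-SMN d2/kryptate HTRF pair incubated overnight. The normalized ΔF is divided by the vehicle ΔF to give fold change, from which EC1.5× and maximum fold are taken.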

In the case of Cc1cn2cc(-c3ccc4nc(C5CCN(C)CC5)cc(=O)n4c3)cc(F)c2n1 [Compound 462, 7-(8-fluoro-2-methylimidazo[1,2-a]pyridin-6-yl)-2-(1-methylpiperidin-4-yl)-4H-pyrido[1,2-a]pyrimidin-4-one], the melting point is reported as 235 to 238 °C, the EC (1.5-fold increase) [1] is reported as less than 0.1 µM and the “EC1.5x for Smn protein expression” value [2] is reported as “**** (an EC1.5x≤0.3 μM is indicated by four stars (****))”. For the same compound, the “maximum fold (Fold) increase of Smn protein” value (from here on “maximum fold (Fold) increase”) [2] was “***** (a fold increase >1.65 is indicated by five stars (*****))”.

For CCN1CC=C(c2ccc3nc(-c4ccc5c(cnn5C)c4)cc(=O)n3c2)CC1 [Compound 463, 7-(1-ethyl-1,2,3,6-tetrahydropyridin-4-yl)-2-(1-methyl-1H-indazol-5-yl)-4H-pyrido[1,2-a]pyrimidin-4-one], the melting point was 172 to 174 °C, the EC (1.5-fold increase) [1] was less than 0.1 µM and the “EC1.5x for Smn protein expression” value [2] was “*** (an EC1.5× between >0.3 μM and ≤1 μM is indicated by three stars (***))”. For the same compound, the “maximum fold (Fold) increase” value [2] was “***** (a fold increase >1.65 is indicated by five stars (*****))”.

In the case of CCCN1CC=C(c2ccc3nc(-c4ccc5c(cnn5C)c4)cc(=O)n3c2)CC1 [Compound 464, 2-(1-methyl-1H-indazol-5-yl)-7-(1-propyl-1,2,3,6-tetrahydropyridin-4-yl)-4H-pyrido[1,2-a]pyrimidin-4-one], the melting point is reported as 152 to 154 °C, the EC (1.5-fold increase) [1] is reported as 0.1 to 0.3 µM and the “EC1.5x for Smn protein expression” value [2] is reported as “** (an EC1.5× between >1 μM and ≤3 μM is indicated by two stars (**))”. For the same compound, the “maximum fold (Fold) increase” value [2] was “**** (a fold increase between >1.5 and ≤1.65 is indicated by four stars (****))”.

For CN(C)c1ccc(-c2cc(=O)n3cc(C4CCNCC4)ccc3n2)cn1 [Compound 465, 2-[6-(dimethylamino)pyridin-3-yl]-7-(piperidin-4-yl)-4H-pyrido[1,2-a]pyrimidin-4-one], the melting point was 208 to 210 °C, the EC (1.5-fold increase) [1] was 0.3 to 1 µM and the “maximum fold (Fold) increase” value [2] was “*** (a fold increase between >1.35 and ≤1.5 is indicated by three stars (***))”.

For CCN1CCN(c2ccc3nc(-c4cc5cnc(C)cn5n4)cc(=O)n3c2)CC1 [Compound 466, 7-(4-ethylpiperazin-1-yl)-2-(6-methylpyrazolo[1,5-a]pyrazin-2-yl)-4H-pyrido[1,2-a]pyrimidin-4-one], the melting point was 220 to 230 °C, the EC (1.5-fold increase) [1] was less than 0.1 µM and the “EC1.5x for Smn protein expression” value [2] was “*** (an EC1.5× between >0.3 μM and ≤1 μM is indicated by three stars (***))”. The “maximum fold (Fold) increase” value [2] was “***** (a fold increase >1.65 is indicated by five stars (*****))”.

In the case of Cc1cn2nc(-c3cc(=O)n4cc(N5CCN6CCC[C@@H]6C5)ccc4n3)cc2cn1 [Compound 467, 7-[(8aR)-hexahydropyrrolo[1,2-a]pyrazin-2(1H)-yl]-2-(6-methylpyrazolo[1,5-a]pyrazin-2-yl)-4H-pyrido[1,2-a]pyrimidin-4-one], the melting point is reported as 240 to 250 °C, the EC (1.5-fold increase) [1] is reported as less than 0.1 µM and the “EC1.5x for Smn protein expression” value [2] is reported as “**** (an EC1.5x≤0.3 μM is indicated by four stars (****))”. The “maximum fold (Fold) increase” value [2] was “***** (a fold increase >1.65 is indicated by five stars (*****))”.

With Cc1cn2nc(-c3cc(=O)n4cc(N5CCC(N(C)C)CC5)ccc4n3)cc2cn1 [Compound 468, 7-[4-(dimethylamino)piperidin-1-yl]-2-(6-methylpyrazolo[1,5-a]pyrazin-2-yl)-4H-pyrido[1,2-a]pyrimidin-4-one] the melting point was 240 to 242 °C, the EC (1.5-fold increase) [1] was less than 0.1 µM and the “EC1.5x for Smn protein expression” value [2] was “*** (an EC1.5× between >0.3 μM and ≤1 μM is indicated by three stars (***))”. For the same compound, the “maximum fold (Fold) increase” value [2] was “**** (a fold increase between >1.5 and ≤1.65 is indicated by four stars (****))”.

With Cc1cn2nc(-c3cc(=O)n4cc(N5CCN(CCO)CC5)ccc4n3)cc2cn1 [Compound 469, 7-[4-(2-hydroxyethyl)piperazin-1-yl]-2-(6-methylpyrazolo[1,5-a]pyrazin-2-yl)-4H-pyrido[1,2-a]pyrimidin-4-one] the melting point was 254 to 256 °C, the EC (1.5-fold increase) [1] was 0.1 to 0.3 µM and the “EC1.5x for Smn protein expression” value [2] was “*** (an EC1.5× between >0.3 μM and ≤1 μM is indicated by three stars (***))”. The “maximum fold (Fold) increase” value [2] was “***** (a fold increase >1.65 is indicated by five stars (*****))”.

In the case of CCCN1CCC(c2ccc3nc(-c4ccc5nc(C)cn5c4)cc(=O)n3c2)CC1 [Compound 470, 2-(2-methylimidazo[1,2-a]pyridin-6-yl)-7-(1-propylpiperidin-4-yl)-4H-pyrido[1,2-a]pyrimidin-4-one], the melting point is reported as 159 to 161 °C, the EC (1.5-fold increase) [1] is reported as less than 0.1 µM and the “EC1.5x for Smn protein expression” value [2] is reported as “**** (an EC1.5x≤0.3 μM is indicated by four stars (****))”. The “maximum fold (Fold) increase” value [2] was “**** (a fold increase between >1.5 and ≤1.65 is indicated by four stars (****))”.

In the case of Cc1cn2nc(-c3cc(=O)n4cc(N5CCN[C@H](C)C5)ccc4n3)cc2cn1 [Compound 472, 7-[(3R)-3-methylpiperazin-1-yl]-2-(6-methylpyrazolo[1,5-a]pyrazin-2-yl)-4H-pyrido[1,2-a]pyrimidin-4-one], the melting point is reported as 240 to 244 °C, the EC (1.5-fold increase) [1] is reported as less than 0.1 µM and the “EC1.5x for Smn protein expression” value [2] is reported as “**** (an EC1.5x≤0.3 μM is indicated by four stars (****))”. The “maximum fold (Fold) increase” value [2] was “***** (a fold increase >1.65 is indicated by five stars (*****))”.

With Cc1cn2nc(-c3cc(=O)n4cc(C5=CCNCC5)ccc4n3)cc2cn1 [Compound 473, 2-(6-methylpyrazolo[1,5-a]pyrazin-2-yl)-7-(1,2,3,6-tetrahydropyridin-4-yl)-4H-pyrido[1,2-a]pyrimidin-4-one] the melting point was 260 to 265 °C, the EC (1.5-fold increase) [1] was less than 0.1 µM and the “EC1.5x for Smn protein expression” value [2] was “**** (an EC1.5x≤0.3 μM is indicated by four stars (****))”. For the same compound, the “maximum fold (Fold) increase” value [2] was “***** (a fold increase >1.65 is indicated by five stars (*****))”.

With Cn1cc2cc(-c3cc(=O)n4cc(C5=CCNCC5)ccc4n3)ccc2n1 [Compound 474, 2-(2-methyl-2H-indazol-5-yl)-7-(1,2,3,6-tetrahydropyridin-4-yl)-4H-pyrido[1,2-a]pyrimidin-4-one] the melting point was 239 to 241 °C, the EC (1.5-fold increase) [1] was less than 0.1 µM and the “EC1.5x for Smn protein expression” value [2] was “**** (an EC1.5x≤0.3 μM is indicated by four stars (****))”. For the same compound, the “maximum fold (Fold) increase” value [2] was “**** (a fold increase between >1.5 and ≤1.65 is indicated by four stars (****))”.

For CN1CCC(c2ccc3nc(-c4ccc5c(cnn5C)c4)cc(=O)n3c2)CC1 [Compound 475, 2-(1-methyl-1H-indazol-5-yl)-7-(1-methylpiperidin-4-yl)-4H-pyrido[1,2-a]pyrimidin-4-one], the melting point was 216 to 218 °C, the EC (1.5-fold increase) [1] was 0.3 to 1 µM and the “EC1.5x for Smn protein expression” value [2] was “** (an EC1.5× between >1 μM and ≤3 μM is indicated by two stars (**))”. The “maximum fold (Fold) increase” value [2] was “*** (a fold increase between >1.35 and ≤1.5 is indicated by three stars (***))”.

With CN1CC=C(c2ccc3nc(-c4ccc5nn(C)cc5c4)cc(=O)n3c2)CC1 [Compound 476, 2-(2-methyl-2H-indazol-5-yl)-7-(1-methyl-1,2,3,6-tetrahydropyridin-4-yl)-4H-pyrido[1,2-a]pyrimidin-4-one] the melting point was 226 to 228 °C, the EC (1.5-fold increase) [1] was less than 0.1 µM and the “EC1.5x for Smn protein expression” value [2] was “**** (an EC1.5x≤0.3 μM is indicated by four stars (****))”. The “maximum fold (Fold) increase” value [2] was “***** (a fold increase >1.65 is indicated by five stars (*****))”.

With CCN1CC=C(c2ccc3nc(-c4ccc5nn(C)cc5c4)cc(=O)n3c2)CC1 [Compound 477, 7-(1-ethyl-1,2,3,6-tetrahydropyridin-4-yl)-2-(2-methyl-2H-indazol-5-yl)-4H-pyrido[1,2-a]pyrimidin-4-one] the melting point was 198 to 200 °C, the EC (1.5-fold increase) [1] was less than 0.1 µM and the “EC1.5x for Smn protein expression” value [2] was “**** (an EC1.5x≤0.3 μM is indicated by four stars (****))”. The “maximum fold (Fold) increase” value [2] was “**** (a fold increase between >1.5 and ≤1.65 is indicated by four stars (****))”.

For CCN1CCC(c2ccc3nc(-c4ccc5nc(C)cn5c4)cc(=O)n3c2)CC1 [Compound 478, 7-(1-ethylpiperidin-4-yl)-2-(2-methylimidazo[1,2-a]pyridin-6-yl)-4H-pyrido[1,2-a]pyrimidin-4-one], the melting point was 190 to 192 °C, the EC (1.5-fold increase) [1] was less than 0.1 µM and the “EC1.5x for Smn protein expression” value [2] was “**** (an EC1.5x≤0.3 μM is indicated by four stars (****))”. The “maximum fold (Fold) increase” value [2] was “***** (a fold increase >1.65 is indicated by five stars (*****))”.

For Cc1cn2cc(-c3cc(=O)n4cc(C5=CCN(C(C)C)CC5)ncc4n3)cc2c(C)n1 [Compound 479, 2-(1,3-dimethylpyrrolo[1,2-a]pyrazin-7-yl)-7-[1-(propan-2-yl)-1,2,3,6-tetrahydropyridin-4-yl]-4H-pyrazino[1,2-a]pyrimidin-4-one], the melting point was 220 to 222 °C, the EC (1.5-fold increase) [1] was less than 0.1 µM and the “maximum fold (Fold) increase” value [2] was “** (a fold increase between >1.2 and ≤1.35 is indicated by two stars (**))”.

For Cc1cn2nc(-c3cc(=O)n4cc(C5=CCNCC5)cc(C)c4n3)cc2c(C)n1 [Compound 480, 2-(4,6-dimethylpyrazolo[1,5-a]pyrazin-2-yl)-9-methyl-7-(1,2,3,6-tetrahydropyridin-4-yl)-4H-pyrido[1,2-a]pyrimidin-4-one], the melting point was greater than 300 °C, the EC (1.5-fold increase) [1] was less than 0.1 µM and the “EC1.5x for Smn protein expression” value [2] was “**** (an EC1.5x≤0.3 μM is indicated by four stars (****))”. The “maximum fold (Fold) increase” value [2] was “***** (a fold increase >1.65 is indicated by five stars (*****))”.
